# Test results taken from patent US20100105707A1, “METHOD OF TREATING OR PREVENTING OXIDATIVE STRESS-RELATED DISEASE” (The United States of America, priority 2006, published 2010).
# How the values were obtained:
# [1] = test system: cultured hippocampal neurons; assay: Oxygen and glucose deprivation (OGD) of cultured hippocampal neurons; format: cell-based, rat; settings: compared to neurons in control cultures; FIG. 2
# Procedure: FIG. 2 illustrates that compounds of formula (I) protect cultured hippocampal neurons against ischemia-like conditions in an embodiment of the invention. Neuronal survival is quantified and values are the mean and SEM (n=8-10 cultures). *p<0.05 compared to the vehicle/OGD cultures. Synaptosomes are prepared from the cerebral cortex of 2-3 month-old adult male Sprague-Dawley rats and are cryopreserved using methods described previously (Begley et al., Brain Res. Protoc., 3, 76-82 (1998)). After thawing, cryopreserved synaptosomes are washed twice with Locke's buffer and plated in 24-well plates at a protein concentration of 250 μg per well. After a 30 min period to permit attachment of the synaptosomes to the substrate, synaptomoses are incubated for 1 h with compounds of formula (I) (1-10 μM), and then exposed for 4 h to freshly prepared 50 μM Fe^2+ (FeSO4). After an additional 30 min incubation in the presence of 10 μM dihydrorhodamine 123 (DHR), a probe for ROS which fluoresces when oxidized (Keller et al., J. Neurochem., 69, 273-284 (1997)), the synaptosomes are washed twice with Locke's buffer and levels of fluorescence are quantified using a fluorescence plate reader (488 nm excitation and 510 emission wavelengths). Fluorescence values for wells exposed to experimental treatments are expressed as a percentage of the mean value for untreated control wells. […] Methods for preparation and maintenance of cultures of PC12 cells and primary embryonic rat hippocampal neurons have been described previously (Furukawa et al., J. Neurosci., 17, 8178-8186 (1997) and Chan et al., J. Biol. Chem., 279, 28733-28743 (2004)). Cells are plated into polyethylenimine-coated plastic 96-well culture plates containing Neurobasal medium with B27 supplements. Experiments are performed in 7-8 day-old cultures (hippocampal neurons) or Dulbecco's modified eagle's medium (DMEM) with 10% fetal bovine serum (PC12 cells). […] Cell viability is quantified by counting viable neurons in premarked microscope fields prior to and following experimental treatment and then calculating percent survival.
# [2] = Pharmacokinetics: plasma and brain levels after intravenous administration; format: in vivo, C57BL/6 mice; settings: mice; for Kp: male, C57BL/6, mouse, brain (cerebral cortical tissue) / plasma, early time points (15-30 min), read-out: brain tissue concentration as percentage of plasma concentration; for detection in the brain: equimolar to 10 mg/kg uric acid, 15, 30, 60 and 120 min; for brain concentration time course versus plasma: through the 120 min time point
# Procedure: Mice are administered intravenously 10 mg/kg ([…]) of uric acid as a reference compound and equimolar doses of its analogs (sUA4-2,6,8 trithio uric acid, 12.9 mg/kg; mUA2-1,7 dimethyl uric acid, 11.7 mg/kg; sUA2-6,8 dithio uric acid, 11.9 mg/kg). Three month-old male C57BL/6 mice are injected with a compound and are euthanized 15, 30, 60 or 120 min later (1 mouse/time point/compound). Blood and brain tissues are rapidly removed, frozen on dry ice and kept at −80° C. before quantification of uric acid analogs. Plasma and cerebral cortical tissues are extracted in 10 volumes of 0.5 M perchloric acid and 1 mM ethylenediamine tetraacetic acid (EDTA). Levels of uric acid analogs in the extracts are quantified by HPLC methods employing a 25 cm RP C18 column, 25 mM KH2PO4 buffer (pH=4.6) with 1 ml/min flow rate and UV diode array detection.
# Mice that are administered mUA2, sUA2 or sUA4 intravenously are euthanized at increasing time points (15, 30, 60 and 120 min) and levels of the compounds in plasma and brain tissue are measured.
# [3] = test system: mouse model of focal ischemic stroke; assay: Focal cerebral ischemia-reperfusion (middle cerebral artery occlusion) model; format: in vivo, C57BL/6 mice; settings: administered 1 h after ischemia onset; for functional outcome (neurological deficit score): FIG. 5A; for brain damage: FIG. 5B
# Procedure: (§1) FIG. 4 illustrates that a compound of formula (I) improves functional outcome (e.g., ambulation) and reduces brain damage in a mouse model of focal ischemic stroke in an embodiment of the invention. In FIG. 4A neurological function is scored at 24, 48 and 72 hours post-stroke. In FIG. 4B infarct volume is quantified at 72 hours post-stroke. Values are the mean and SEM (n=8-12 mice). *p<0.001 compared to sham. +p<0.01 compared to vehicle.
# as §1, with “FIG. 5” for “FIG. 4”, “that compounds” for “that a compound”, “(I) improve” for “(I) improves”, “outcome” for “outcome (e.g., ambulation)”, “FIG. 5A,” for “FIG. 4A”, “FIG. 5B,” for “FIG. 4B”
# Three month-old male C57BL/6 mice are maintained on a 12 h light/12 h dark cycle with continuous access to food and water. The method for subjecting the mice to middle cerebral artery occlusion-reperfusion has been described previously (Arumugam et al., Am. J. Physiol. Heart Circ. Physiol., 287, H2555-2560 (2004)). Mice are anesthetized with isofluorane, a midline incision is made in the neck, and the left external carotid and pterygopalatine arteries are isolated and ligated with 5-0 silk thread. The internal carotid artery (ICA) is occluded at the peripheral site of the bifurcation of the internal carotid artery and the pterygopalatine artery with a small clip and the common carotid artery is ligated with 5-0 silk thread. The external carotid artery is cut, and a 6-0 nylon monofilament with a tip that is blunted (0.2-0.22 mm) with a coagulator is inserted into the external carotid artery. After the clip at the ICA is removed, the nylon thread is advanced into the middle cerebral artery until light resistance is felt. The nylon thread and the common carotid artery ligature are removed after 1 h of occlusion to initiate reperfusion. In the sham group, these arteries are visualized but not disturbed. Mice are administered either uric acid analogs of formula (I) or vehicle (dimethylsulfoxide) by infusion into the femoral vein (10 μl infused over a 2 min period) either 30 min prior to or 60 min after the onset of middle cerebral artery (MCA) occlusion. In a separate set of experiments anesthetized animals from all groups (4-6 mice per group) undergo cerebral blood flow (CBF) measurements using a laser Doppler perfusion monitor. All blood flow measurements are conducted with the mouse fixed in a plastic frame with the probe placed in the region of cerebral cortex perfused by the middle cerebral artery. These procedures are approved by the National Institute on Aging Animal Care and Use Committee.
# The functional consequences of focal cerebral ischemia-reperfusion injury are evaluated by using a five-point neurological deficit score (0, no deficit; 1, failure to extend right paw; 2, circling to the right; 3, falling to the right; and 4, unable to walk spontaneously) and are assessed in a blinded fashion. At 72 h of reperfusion, the mice are killed with a lethal dose of isofluorane. The brains are immediately removed and placed into PBS (4° C.) for 15 min, and 2-mm coronal sections are cut with a tissue cutter. The brain sections are stained with 2% 2,3,5-triphenyltetrazolium chloride in phosphate buffer at 37° C. for 15 min. The stained sections are photographed, and the digitized images are used for analysis. The borders of the infarct in each brain slice are outlined and the area quantified using a NIH image 6.1 software. To correct for brain swelling, the infarct area is determined by subtracting the area of undamaged tissue in the left hemisphere from that of the intact contralateral hemisphere. Infarct volume is calculated by integration of infarct areas for all slices of each brain.
# [4] = Water solubility in cold water; format: physicochemical
# Procedure: Commercially available derivatives are obtained from Sigma-Aldrich (St. Louis, Mo.). The methods used for the synthesis of methyl- and sulfur-derivatives of uric acid are similar to those described previously (Beaman et al., J. Org. Chem., 27, 986-990 (1962) and Maruyama et al., Nucleosides, Nucleotides, Nucleic Acids, 19, 1193-1203 (2000)) and structures are confirmed by ^13C nuclear magnetic resonance (NMR) and ultra-violet (UV) spectral analyses. Uric acid analogs are assayed by high performance liquid chromatography (HPLC) and found to be of >97% purity.
# PC12 cells [5] = assay: PC12 cell death induced by Fe2+; format: cell-based; settings: concentrations of 0.1 to 10 μM; FIGS. 3A and 3B
# Text: (§2) FIG. 3 illustrates that uric acid and a compound of formula (I) protect cultured neural cells against oxidative and excitotoxic injury in an embodiment of the invention. Cultured PC12 cells are pretreated with uric acid (FIG. 3A) or mUA3 (FIG. 3B). Cultured hippocampal neurons are pretreated with uric acid (FIG. 3C) or mUA3 (FIG. 3D). Cell survival is quantified and values are the mean and SEM of 4-8 cultures. *p<0.05 compared to 0 uric acid or mUA3 concentration.
# (§3) Methods for preparation and maintenance of cultures of PC12 cells and primary embryonic rat hippocampal neurons have been described previously (Furukawa et al., J. Neurosci., 17, 8178-8186 (1997) and Chan et al., J. Biol. Chem., 279, 28733-28743 (2004)). Cells are plated into polyethylenimine-coated plastic 96-well culture plates containing Neurobasal medium with B27 supplements. Experiments are performed in 7-8 day-old cultures (hippocampal neurons) or Dulbecco's modified eagle's medium (DMEM) with 10% fetal bovine serum (PC12 cells). Hippocampal neurons and PC12 cells are plated 7 days and 3 days prior to experiments, respectively. […] Cell viability is quantified by counting viable neurons in premarked microscope fields prior to and following experimental treatment and then calculating percent survival. […]
# [6] = test system: primary hippocampal neurons; assay: Hippocampal neuron death induced by glutamate excitotoxicity; format: cell-based, rat; settings: FIGS. 3C and 3D
# Text: as §2, §3
# [7] = test system: ROS in cerebral cortex synaptosomes; assay: Synaptosome antioxidant assay (Fe2+-induced ROS, dihydrorhodamine 123); format: cell-based, Sprague-Dawley rats; settings: 1-10 μM, 1 h pretreatment, then 50 μM Fe2+ for 4 h; FIG. 1B
# Procedure: FIG. 1A depicts structures of uric acid and exemplary compounds of formula (I). FIG. 1B illustrates antioxidant activities of uric acid and compounds of formula (I) as quantified using a synaptosome assay in an embodiment of the invention. Levels of reactive oxygen species (ROS) are measured and values are expressed as a percentage of ROS present in Fe^2+-treated control synaptosomes (mean and SEM, n=4 experiments). *p<0.05, **p<0.01 compared to the control value.
# Synaptosomes are prepared from the cerebral cortex of 2-3 month-old adult male Sprague-Dawley rats and are cryopreserved using methods described previously (Begley et al., Brain Res. Protoc., 3, 76-82 (1998)). After thawing, cryopreserved synaptosomes are washed twice with Locke's buffer and plated in 24-well plates at a protein concentration of 250 μg per well. […] After an additional 30 min incubation in the presence of 10 μM dihydrorhodamine 123 (DHR), a probe for ROS which fluoresces when oxidized (Keller et al., J. Neurochem., 69, 273-284 (1997)), the synaptosomes are washed twice with Locke's buffer and levels of fluorescence are quantified using a fluorescence plate reader (488 nm excitation and 510 emission wavelengths). Fluorescence values for wells exposed to experimental treatments are expressed as a percentage of the mean value for untreated control wells.
# [8] = test system: primary hippocampal neurons; assay: Hippocampal neuron death induced by Fe2+; format: cell-based, rat; settings: FIGS. 3C and 3D
# Text: as §2, §3
# PC12 cells [9] = assay: PC12 cell death induced by MPP+; format: cell-based; settings: concentrations of 0.1 to 10 μM; FIGS. 3A and 3B
# Text: as §2, §3
Kp [2],solubility [4] [µg/mL],SMILES,resistance to OGD induced death [1],detection in the brain [2],brain concentration time course versus plasma [2],functional outcome (neurological deficit score) [3],brain damage [3],protection of PC12 cells against Fe2+ (PC12 cells [5]),protection of primary hippocampal neurons against glutamate excitotoxicity [6],levels of ROS in synaptosomes [7],protection of primary hippocampal neurons against death induced by Fe2+ [8],protection of PC12 cells against MPP+ (PC12 cells [9])
~0.1,3000,"S=c1[nH]c(=S)c2[nH]c(=S)[nH]c2[nH]1 [sUA4, 2,6,8 trithio uric acid]",significantly more resistant,detected in the brain at all time points examined,remain elevated while plasma concentrations decrease progressively,significantly improve functional outcome,decrease brain damage,–,–,–,–,–
~0.1,2000,"Cn1c(=O)[nH]c2[nH]c(=O)n(C)c2c1=O [mUA2, 1,7 dimethyl uric acid]",significantly more resistant,detected in the brain at all time points examined,remain elevated while plasma concentrations decrease progressively,significantly improve functional outcome,decrease brain damage,–,–,–,–,–
–,100,O=c1[nH]c(=O)c2[nH]c(=O)[nH]c2[nH]1 [uric acid],–,–,–,–,–,protected,protected,significantly diminished,protected,protected
